In patent publication US12428370B2, “Haloallylamine dual amine oxidase inhibitors” (Syntara Limited, priority 2020, dated 2025):
Structures can show the parent of a compound that is named as a salt.

Legend:
[1] = Stability of Compound 1 in a grape syrup formulation; type: physicochemical
Procedure: Methylparahydroxybenzoate (126.2 mg), propylparahydroxybenzoate (20.0 mg), sodium phosphate monobasic (1%, 1.0 g) and saccharose (16.56 g) were dissolved in 100 mL purified water, vortexed for 10 min, followed by sonication for 30 min, and then filtered through a 0.45 μm filter. pH adjusted to pH 5 using 0.5 M NaOH. To 50 mL of the resultant solution was added grape flavor (LorAnnOils, 0180-0800; 1%, 0.5 mL), followed by 50 mg of Compound 1 to attain a final concentration of 1 mg/mL. Split into two 25 mL portions, one frozen, and one left at room temperature (rt) in a sealed falcon tube.

[2] = tested on: mdx mice (C57BL/10ScSn-Dmdmdx/J); assay: Mouse model of Duchenne muscular dystrophy, Compound 1; type: in vivo; details: 4.8 mg/kg/day oral
Procedure: Three-months old mdx mice (C57BL/10ScSn-Dmdmdx/J) received daily doses of Compound 1 (in a range of 1-6 mg/kg) administered in the drinking water for thirty days. Untreated, age-matched animals were used as controls. A second cohort of mice aged 10 months-old received daily doses of Compound 1 (in a range of 1-6 mg/kg) administered in the drinking water for ninety days. Untreated, age-matched animals were used as controls.
After the end of each treatment period, animals were sacrificed by cervical dislocation and the skeletal muscle and the heart (minus the atria) collected, flash-frozen in isopentane pre-cooled with liquid nitrogen and stored at −80° C. 12 μm sections from the diaphragm muscle were prepared with a cryotome; multiple serial slides were prepared, containing sections from at least three different levels. The same procedure was used to prepare heart transverse sections.
The amount of the neutrophil and macrophage infiltration, reactive oxygen species (ROS) present and the percentage of fibrotic tissue, was determined as described in EXAMPLE 17.

[3] = Metabolic stability profile (liver microsomes, hepatocytes, plasma, whole blood, simulated gastric fluid, metabolite identification); type: in vitro ADME; details: all assays: liver microsomes, plasma (human, rat, dog), simulated gastric fluid pH 1.2, metabolite identification
Procedure: Assessment of the metabolic stability profile of Compound 1 using standardized commercially available methods (available through contract research organizations such as Eurofins Panlabs Inc, (https://www.eurofinsdiscoveryservices.com/services/in-vitro-assays/) or Evotec SE, (https://www.evotec.com/en/execute/integrated-pre-clinical-development/adme)).
The potential for metabolism in vivo was evaluated in vitro using the following assays:
Liver microsomal stability (human, rat, dog; in presence of NADPH)
Hepatocyte stability (human, rat, dog)
Plasma stability (human, rat, dog)
Whole blood stability (human, rat)
Simulated gastric fluid stability (10 μM test article, pH 1.2)
Metabolite identification in human hepatocytes

[4] = tested on: Hooded Wistar rat model of dopaminergic neurodegeneration; assay: Intranigral LPS-induced neuroinflammatory model, dopaminergic neuron counts; type: in vivo, Hooded Wistar male rats; details: unilateral LPS, 2 mg/kg i.p. daily for 2 weeks, t-test p<0.05, FIG. 5
Procedure: Hooded Wistar male rats weighing between 300-400 g were obtained from Adelaide Laboratory Animal Services.
Unilateral infusions: Rats receiving a unilateral injection of 2 μL of 1.5 mg/mL solution of LPS (O55:B5, Sigma) in the substantia nigra were anaesthetized with isofluorane and positioned in a stereotaxic frame. For all rats, holes were drilled into the skull above the appropriate targeted structures according to the following coordinates: −5.3 mm posterior; ±2.0 mm lateral; −8.0 mm ventral to bregma.
Immunohistochemical procedures: two weeks after the lesion, the rats were transcardially perfused with PBS followed by PFA 4%. Brains were post-fixed in PFA 4%, and coronal sections of 30 μm containing the substantia nigra were collected and washed 3×0.01 M phosphate-buffered saline at pH 7.4. (PBS) for 10 minutes. Dopaminergic neurons were stained with anti-tyrosine hydroxylase (TH) antibody 1:10000 and visualized using nickel-enhanced 3,3′-diaminobenzidine (DAB) and counted manually.

[5] = biological target: T1, Rat Brain Tissue MAO-B (Rattus norvegicus, UniProt P19643); assay: Rat brain tissue MAO-B activity after oral administration; type: in vivo, Sprague Dawley rats; details: single oral dose 0.6 mg/kg, Sprague Dawley rat brain tissue, FIG. 3
T1 construct: Brain tissue was homogenized in ice-cold Tris buffer; from tissue; host or cells: brain of Sprague Dawley rats (mitochondrial extract)
T1 sequence (P19643 1-520): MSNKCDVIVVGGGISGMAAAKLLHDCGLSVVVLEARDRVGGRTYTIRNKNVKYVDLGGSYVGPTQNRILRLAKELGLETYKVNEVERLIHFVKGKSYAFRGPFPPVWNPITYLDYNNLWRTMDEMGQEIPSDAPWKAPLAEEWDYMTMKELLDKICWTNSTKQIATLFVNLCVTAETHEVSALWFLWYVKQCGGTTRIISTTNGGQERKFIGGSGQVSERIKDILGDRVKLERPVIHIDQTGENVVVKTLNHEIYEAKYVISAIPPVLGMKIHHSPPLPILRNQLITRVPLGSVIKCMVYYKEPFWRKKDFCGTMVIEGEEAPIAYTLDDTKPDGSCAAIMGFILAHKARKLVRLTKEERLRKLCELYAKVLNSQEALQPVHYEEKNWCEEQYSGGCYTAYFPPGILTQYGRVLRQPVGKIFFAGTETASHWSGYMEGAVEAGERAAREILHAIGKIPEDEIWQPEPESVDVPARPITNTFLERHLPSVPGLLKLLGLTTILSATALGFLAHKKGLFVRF
Procedure: Sprague Dawley rats were orally administered the compound under study and sacrificed at various time points and gonadal fat and brain tissue collected.
Brain tissue was homogenized in ice-cold Tris buffer (10 mM Tris·HCl, 0.5 mM EDTA, sucrose 250 mM, pH 7.4). Homogenate was then centrifuged at 4,000 rpm for 3 minutes at 4° C. The resultant supernatant was transferred and centrifuged again at 4,000 rpm for 3 minutes at 4° C. Process repeated one last time, this time at 10,000 rpm for 8 minutes. Supernatant discarded and the resultant pellet containing the mitochondrial extract re-suspended in 0.1 M sodium phosphate buffer solution (1:3 ratio). MAO-B activity was determined by using a specific MAO-A inhibitor (e.g. clorgyline) and a SSAO/VAP-1 inhibitor (e.g. semicarbazide) to establish the high signal. Low signal was established as for the adipose tissue assay.
Activity of the treated samples was analyzed using the fluorometric method described in EXAMPLE 9 for SSAO/VAP-1 activity and EXAMPLE 10 for MAO-B.

Structure (SMILES): N#Cc1ccc(OC/C(=C/F)CN)cc1 [Compound 1, (E)-4-((2-(aminomethyl)-3-fluoroallyl)oxy) benzonitrile]
- degradation in grape syrup formulation ([1]; 91 days at room temperature): no discernible degradation
- Purity of Compound 1 stored at rt for 91 days as measured by HPLC/area under the curve at 265 nm ([1]; grape syrup formulation 1 mg/mL, pH 5, rt, 91 days): 99.785%
- Purity of Compound 1 stored at −20° C. for 91 days as measured by HPLC/area under the curve at 265 nm ([1]; grape syrup formulation 1 mg/mL, pH 5, −20° C., 91 days): 99.781%
- cardiac fibrosis (picrosirius red staining in the heart muscle) ([2]; ninety days, 10 months-old mdx mice, p<0.0001, FIG. 13): significantly reduces
- neutrophil influx in the diaphragm muscle ([2]; thirty days, 3 months-old mdx mice, p<0.0001, FIG. 12A): significantly reduces
- macrophage influx in the diaphragm muscle ([2]; thirty days, 3 months-old mdx mice, p<0.0001, FIG. 12B): significantly reduces
- reactive oxygen species in the diaphragm muscle ([2]; thirty days, 3 months-old mdx mice, p<0.0001, FIG. 12C): significantly reduces
- fibrosis (picrosirius red staining) in the diaphragm muscle ([2]; thirty days, 3 months-old mdx mice, p<0.0001, FIG. 12D): significantly reduces
- metabolic stability [3]: favourable metabolic stability

Structure (SMILES): NC/C(=C\F)C1Cc2ccccc2O1 (single isomer, unassigned; (-)) [PXS-5131, (−)-(E)-2-(2,3-Dihydrobenzofuran-2-Yl)-3-Fluoroprop-2-En-1-Amine Hydrochloride]
- loss of dopaminergic neurons (TH-positive) in substantia nigra [4]: significant protection from loss
- duration of inhibition of MAO-B enzyme activity [5]: greater than 24 hours
